System: HIV-1IIIB
Experiment: Two-drug combination antiviral assay in CEM cells (CPE), MacSynergy II
Format: cell-based
Conditions: for Interpretation of Antiviral Results (MacSynergy): two-drug combination (with CMX157; control d4T/RBV), CEM-SS cells; for Antagonism Volume, Result 1 / Antagonism Volume, Result 2 / Antagonism Volume, Result 3 / Mean Antagonism Volume (n = 3) / Mean Synergy Volume (n = 3) / Synergy Volume, Result 1 / Synergy Volume, Result 2 / Synergy Volume, Result 3: in combination with CMX157, CEM-SS cells, 95% confidence

| Compound | Interpretation of Antiviral Results (MacSynergy) | Antagonism Volume, Result 1 | Antagonism Volume, Result 2 | Antagonism Volume, Result 3 | Mean Antagonism Volume (n = 3) | Mean Synergy Volume (n = 3) | Synergy Volume, Result 1 | Synergy Volume, Result 2 | Synergy Volume, Result 3 |
| --- | --- | --- | --- | --- | --- | --- | --- | --- | --- |
| COC(=O)N[C@H](C(=O)N[C@@H](Cc1ccccc1)[C@@H](O)CN(Cc1ccc(-c2ccccn2)cc1)NC(=O)[C@@H](NC(=O)OC)C(C)(C)C)C(C)(C)C [Atazanavir (ATV), atazanavir] | slightly synergistic |  |  |  |  |  |  |  |  |
| CC(C)Nc1cccnc1N1CCN(C(=O)c2cc3cc(NS(C)(=O)=O)ccc3[nH]2)CC1 [Delavirdine (DLV), delavirdine] | slightly synergistic | 0 nM^2 %, μM^2 % or nMμM % | 0 nM^2 %, μM^2 % or nMμM % | −2.58 nM^2 %, μM^2 % or nMμM % | 0 nM^2 %, μM^2 % or nMμM % | 72.9 nM^2 %, μM^2 % or nMμM % | 152 nM^2 %, μM^2 % or nMμM % | 68.4 nM^2 %, μM^2 % or nMμM % | 1.01 nM^2 %, μM^2 % or nMμM % |
| CC(C)(C)NC(=O)[C@@H]1C[C@@H]2CCCC[C@@H]2CN1C[C@@H](O)[C@H](Cc1ccccc1)NC(=O)[C@H](CC(N)=O)NC(=O)c1ccc2ccccc2n1 [Saquinavir (SQV), saquinavir] |  | −2.54 nM^2 %, μM^2 % or nMμM % | −0.81 nM^2 %, μM^2 % or nMμM % | 0 nM^2 %, μM^2 % or nMμM % | −1.12 nM^2 %, μM^2 % or nMμM % | 45.2 nM^2 %, μM^2 % or nMμM % | 123 nM^2 %, μM^2 % or nMμM % | 8.35 nM^2 %, μM^2 % or nMμM % | 3.93 nM^2 %, μM^2 % or nMμM % |
| Cc1ccnc2c1NC(=O)c1cccnc1N2C1CC1 [Nevirapine (NVP), nevirapine] |  | 0 nM^2 %, μM^2 % or nMμM % | 0 nM^2 %, μM^2 % or nMμM % | 0/0 nM^2 %, μM^2 % or nMμM % | 0 nM^2 %, μM^2 % or nMμM % | 38.5 nM^2 %, μM^2 % or nMμM % | 74.1 nM^2 %, μM^2 % or nMμM % | 41.5 nM^2 %, μM^2 % or nMμM % | 0/0 nM^2 %, μM^2 % or nMμM % |
| Cc1nnc(C(=O)NC(C)(C)c2nc(C(=O)NCc3ccc(F)cc3)c(O)c(=O)n2C)o1 [Raltegravir (RAL), raltegravir] |  | 0 nM^2 %, μM^2 % or nMμM % | 0 nM^2 %, μM^2 % or nMμM % | 0 nM^2 %, μM^2 % or nMμM % | 0 nM^2 %, μM^2 % or nMμM % | 34.3 nM^2 %, μM^2 % or nMμM % | 18.4 nM^2 %, μM^2 % or nMμM % | 1.92 nM^2 %, μM^2 % or nMμM % | 82.6 nM^2 %, μM^2 % or nMμM % |
| enfuvirtide |  | 0/0 nM^2 %, μM^2 % or nMμM % | 0 nM^2 %, μM^2 % or nMμM % | 0/0 nM^2 %, μM^2 % or nMμM % | 0 nM^2 %, μM^2 % or nMμM % | 1.02 nM^2 %, μM^2 % or nMμM % | 0/0 nM^2 %, μM^2 % or nMμM % | 3.05 nM^2 %, μM^2 % or nMμM % | 0/0 nM^2 %, μM^2 % or nMμM % |
| CC(C)(C)NC(=O)[C@@H]1CN(Cc2cccnc2)CCN1C[C@@H](O)C[C@@H](Cc1ccccc1)C(=O)N[C@H]1c2ccccc2C[C@H]1O [Indinavir (IDV), indinavir] | slightly synergistic | −0.56 nM^2 %, μM^2 % or nMμM % | 0 nM^2 %, μM^2 % or nMμM % | 0 nM^2 %, μM^2 % or nMμM % | −0.19 nM^2 %, μM^2 % or nMμM % | 53.0 nM^2 %, μM^2 % or nMμM % | 78.7 nM^2 %, μM^2 % or nMμM % | 62.7 nM^2 %, μM^2 % or nMμM % | 17.6 nM^2 %, μM^2 % or nMμM % |
| O=C1Nc2ccc(Cl)cc2C(C#CC2CC2)(C(F)(F)F)O1 (centres unmarked) [Efavirenz (EFV), 6-chloro-4-cyclopropylethynyl-4-trifluoromethyl-1,4-dihydro-2H3,1-benzoxazin-2-one] | slightly synergistic | 0 nM^2 %, μM^2 % or nMμM % | 0 nM^2 %, μM^2 % or nMμM % | 0 nM^2 %, μM^2 % or nMμM % | 0 nM^2 %, μM^2 % or nMμM % | 69.8 nM^2 %, μM^2 % or nMμM % | 85.7 nM^2 %, μM^2 % or nMμM % | 80.6 nM^2 %, μM^2 % or nMμM % | 43.2 nM^2 %, μM^2 % or nMμM % |
| Cc1c(O)cccc1C(=O)N[C@@H](CSc1ccccc1)[C@H](O)CN1C[C@H]2CCCC[C@H]2C[C@H]1C(=O)NC(C)(C)C [Nelfinavir (NFV), nelfinavir] | slightly synergistic | 0 nM^2 %, μM^2 % or nMμM % | 0 nM^2 %, μM^2 % or nMμM % | 0 nM^2 %, μM^2 % or nMμM % | 0 nM^2 %, μM^2 % or nMμM % | 80.9 nM^2 %, μM^2 % or nMμM % | 32.1 nM^2 %, μM^2 % or nMμM % | 85.1 nM^2 %, μM^2 % or nMμM % | 125 nM^2 %, μM^2 % or nMμM % |
| CCC[C@@]1(CCc2ccccc2)CC(O)=C([C@H](CC)c2cccc(NS(=O)(=O)c3ccc(C(F)(F)F)cn3)c2)C(=O)O1 [Tipranavir (TPV), tipranavir] |  | 0 nM^2 %, μM^2 % or nMμM % | −8.60 nM^2 %, μM^2 % or nMμM % | 0 nM^2 %, μM^2 % or nMμM % | −2.87 nM^2 %, μM^2 % or nMμM % | 52.2 nM^2 %, μM^2 % or nMμM % | 110 nM^2 %, μM^2 % or nMμM % | 29.4 nM^2 %, μM^2 % or nMμM % | 16.8 nM^2 %, μM^2 % or nMμM % |

— patent publication US8993542B2, “Methods of treating viral infections” (priority 2008, dated 2015)
